In patent US4340672A, “Enzymatic synthesis of β-lactam antibacterials” (Shionogi & Co., Ltd., priority 1979, dated 1982):
Converted amounts (≈) assume the structure as drawn.

Assays:
[1] = tested on: A. fragerum M-2183-1 acylase; experiment: Selectivity of the acylases; conditions: ester (I) 45 mg, amine (II) 9 mg, 37° C., 3 hours 45 minutes; TLC and paper-disc assay with Bacillus subtilis PCI-219
[2] = tested on: A. globiformis M-345-2 acylase; experiment: Selectivity of the acylases; conditions: ester (I) 45 mg, amine (II) 9 mg, 37° C., 3 hours 45 minutes; TLC and paper-disc assay with Bacillus subtilis PCI-219
[3] = tested on: B. Circulans M-1123-5 acylase; experiment: Selectivity of the acylases; conditions: ester (I) 45 mg, amine (II) 9 mg, 37° C., 3 hours 45 minutes; TLC and paper-disc assay with Bacillus subtilis PCI-219
Solubility in water = assay type: physicochemical; conditions: read-out: concentration that can dissolve in water
[4] = tested on: acylase of Xanthomonas axonopodis M-621-1 on Sepharose 4B; experiment: Cephalexin production with immobilized enzyme of Xanthomonas axonopodis M-621-1; assay type: biochemical; conditions: ester 45 mg, 7-aminodeacetoxycephalosporanic acid 3 mg, 37° C., 3.5 hours
[5] = tested on: immobilized enzyme (acylase) of Bacillus circulans M-1123-5 on Sepharose 4B; experiment: Reactivity of TA esters by batch process; assay type: biochemical; conditions: 7-ACA to CET, 7-ACA 30 mg in 10 ml, pH 7.0, 37° C., 3 hours
Description: To a solution of 7-ACA (30 mg) and TA-esters (given amount) in M/10-phosphate buffer (pH 7.0) (10 ml) is added an immobilized enzyme (0.9 g) on Sepharose 4B, and the mixture is stirred at 37° C. for 3 hours. Concentration of CET in the reaction mixture is estimated by assaying antibacterial activity against Bacillus subtilis PCI-219 and conversion rate from 7-ACA to CET is calculated.

[6] = tested on: acylase of Micrococcus roseus M-1054-1 (broth); experiment: Cephalothin production with broth of Micrococcus roseus; assay type: biochemical; conditions: 3.5 hours at 37° C.; paper disc assay against Bacillus subtilis PCI-219
Description: The broth is adjusted to pH 7.0. The broth (4.5 ml) is added to a solution of 7-ACA (3%) and (i) 2-thienylacetic acid glycerin ester, (ii) 2-thienylacetic acid tetraethyleneglycol ester or (iii) 2-thienylacetic acid octaethyleneglycol ester in 0.2 M-phosphate buffer (0.5 ml) to react for 3.5 hours at 37° C. The reaction mixture is centrifuged to remove cells and the supernatant is assayed by paper disc assay method against Bacillus subtilis PCI-219 to the following values of produced cephalothin.

[7] = tested on: immobilized enzyme (acylase) of Bacillus circulans M-1123-5; experiment: Reactivity of TA esters by column method; assay type: biochemical; conditions: 7-ACA 5 mg/ml, 37° C., 25 ml/hr
Description: Concentration of CET in the eluate is determined by assaying antibacterial activity against Bacillus subtilis PCI-219 to estimate the yield on Table 3 in the laminar flow state. (Immobilization of purified enzyme)

[8] = tested on: purified acylase of Bacillus circulans M-1123-5 immobilized on agar gel; experiment: Acylating capacity of immobilized pure enzyme; assay type: biochemical
[9] = tested on: immobilized enzyme from Arthrobacter globiformis M-345-2; experiment: Acylating capacity of immobilized enzyme from Arthrobacter globiformis M-345-2; assay type: biochemical
[10] = tested on: acylase of Micrococcus luteus M-331-1 (dried cells); experiment: CET production with dried cells of Micrococcus luteus M-331-1; assay type: biochemical; conditions: dried cells 26 mg, 3 hours, 37° C., pH 7.0
Description: The broth is added into an aqueous medium (100 volumes) of the same composition as above, and incubated for 3 days at 28° C.
The broth is neutralized with hydrochloric acid to pH 7, centrifuged to collect the cells, washed with water and dried by washing with acetone to give 1.302 g of dry cells.
The dried cells (26 mg) are suspended in water (1.5 ml), diluted with a solution of 7-ACA (4 mg/ml) and TA-tetraester (20 mg/ml) in M/5-phosphate buffer (pH 7.0) (0.5 ml) and shaken for 3 hours at 37° C. to produce CET at a conversion rate of about 30%. (Immobilized cell entrapted in acrylamide gel)

[11] = tested on: acylase of Micrococcus luteus M-331-1 (immobilized cells); experiment: CET production with immobilized cells in acrylamide gel; assay type: biochemical; conditions: 7-ACA 1 mg/ml
Description: In a solution of acrylamide monomer (750 mg) and N,N'-methylenebisacrylamide (40 mg) in M/20-phosphate buffer (pH 7.0) (4 ml) are suspended said dry cells (1 g). To this solution is added 5% 3-dimethylaminopropionitrile (0.5 ml) and aqueous 1% potassium persulfate (0.5 ml) and the mixture is allowed to stand at 25° C. for 30 minutes. Produced gel is crushed with blender and produced particles over 100 mesh are collected, filled in a 10 mm .phi. tube, and washed with M/20-phosphate buffer (pH 7.0) to give a column (10.2 ml) of immobilized cells.

[12] = tested on: acylase of Bacillus circulans M-1123-5 absorbed on Celite 560; experiment: Acylating capacity of absorbed enzyme on Celite 560; assay type: biochemical
[13] = TA-tetraester 12.5 mg/ml, pH 7.0
[14] = TA-tetraester 18.8 mg/ml, pH 7.0

COCCOCCOCCOCCOCCOC(=O)Cn1cnnn1
product detected and determined, A. fragerum M-2183-1 [1]: 54.9
product detected and determined, A. globiformis M-345-2 [2]: 43.7
product detected and determined, B. Circulans M-1123-5 [3]: 55.7

COCCOCCOC(=O)C(N)c1ccccc1 (stereo not shown)
product detected and determined, A. globiformis M-345-2 [2]: 10.6
product detected and determined, B. Circulans M-1123-5 [3]: 29.6

COC(=O)Cc1cccs1 [2-thienylacetic acid methyl ester]
solubility (Solubility in water): 10000 µg/mL (≈ 64 mM)

COCCOCCOC(=O)[C@H](N)c1ccccc1 [D-phenylglycin diethyleneglycol ester methyl ether]
conversion rate to cephalexin [4]: 26.3%

O=C(Cc1cccs1)OCC(O)CO (stereo not shown) [TA-glycerin ester, 2-thienylacetic acid glycerin ester]
Conversion rate (%) [5]: 73.7%
produced cephalothin [6]: 34 µg/mL
7-ACA→CET Conversion rate (%) ([7]; carrier Sepharose 4B): 82.0%

COCCOCCOCCOCCOCCOCCOCCOCCOC(=O)Cc1cccs1 [TA-octaester methyl ether]
Conversion rate (%) [5]: 68.2%
7-ACA→CET Conversion rate (%) ([8]; Elute 39 ml, 7-ACA 10 mg/ml, ester 142.2 mg/ml, 16 ml/hr): 84.8%
7-ACA→CET Conversion rate (%) ([8]; Elute 173 ml): 85.2%
7-ACA→CET Conversion rate (%) ([8]; Elute 306 ml): 85.3%
7-ACA→CET Conversion rate (%) ([8]; Elute 405 ml): 90.4%
7-ACA→CET Conversion rate (%) ([8]; Elute 731 ml): 85.7%
7-ACA→CET Conversion rate (%) ([8]; Elute 782 ml): 86.3%
7-ACA→CET Conversion rate (%) ([8]; Elute 917 ml): 88.5%
7-ACA→CET Conversion rate (%) ([8]; Elute 1089 ml): 86.9%
7-ACA→CET Conversion rate (%) ([8]; Elute 1156 ml): 86.6%
7-ACA→CET Conversion rate (%) ([8]; Elute 1294 ml): 82.5%
7-ACA→CET Conversion rate (%) ([8]; Elute 1432 ml): 83.1%
7-ACA→CET Conversion rate (%) ([8]; Elute 1534 ml): 82.0%
Conversion rate ([9]; 7-ACA 1 mg/ml, TA-ester 60, Agar gel): 80.5%
Conversion rate ([9]; 7-ACA 1 mg/ml, TA-ester 114, Agar gel): 76.5%
7-ACA→CET Conversion rate (%) ([7]; carrier Agar gel): 69.8%
7-ACA→CET Conversion rate (%) ([7]; carrier Sepharose 4B): 69.8%

O=C(Cc1cccs1)OCCOCCOCCOCCOCCOCCOCCOCCO [TA-octaester, 2-thienylacetic acid octaethyleneglycol ester]
Conversion rate (%) [5]: 76.2%
produced cephalothin [6]: 22 µg/mL

O=C(Cc1cccs1)OCCOCCOCCOCCOCCO [TA-pentaester]
Conversion rate (%) [5]: 80.6%
7-ACA→CET Conversion rate (%) ([7]; carrier Sepharose 4B): 69.9%

COCCOCCOCCOCCOC(=O)Cc1cccs1 [TA-tetraester methyl ether]
Conversion rate (%) [5]: 73.3%
7-ACA→CET Conversion rate (%) ([7]; carrier Agar gel): 86.5%
7-ACA→CET Conversion rate (%) ([7]; carrier Sepharose 4B): 86.5%

O=C(Cc1cccs1)OCCOCCOCCOCCO [TA-tetraester, 2-thienylacetic acid tetraethyleneglycol ester]
conversion rate (CET produced) [10]: about 30%
Conversion rate (%) [5]: 77.1%
conversion rate (CET in eluate) ([11]; TA-tetraester 6 mg/ml): 28.6 to 32.5%
conversion rate (CET in eluate) ([11]; TA-tetraester 30 mg/ml): 31.2 to 34.1%
7-ACA→CET Conversion rate (%) In eluate [12, 13]: 63.0%
7-ACA→CET Conversion rate (%) Isolated Na salt [12, 13]: 53.0%
7-ACA→CET Conversion rate (%) In eluate [12, 14]: 63.0%
7-ACA→CET Conversion rate (%) Isolated Na salt [12, 14]: 64.2%
7-ACA→CET Conversion rate (%) In eluate ([12]; TA-tetraester 25 mg/ml, pH 6.0): 62.8%
7-ACA→CET Conversion rate (%) Isolated Na salt ([12]; TA-tetraester 25 mg/ml, pH 6.0): 48.5%
7-ACA→CET Conversion rate (%) In eluate ([12]; TA-tetraester 25 mg/ml, pH 7.0): 72.9%
7-ACA→CET Conversion rate (%) Isolated Na salt ([12]; TA-tetraester 25 mg/ml, pH 7.0): 67.2%
7-ACA→CET Conversion rate (%) In eluate ([12]; TA-tetraester 25 mg/ml, pH 8.0): 71.6%
7-ACA→CET Conversion rate (%) Isolated Na salt ([12]; TA-tetraester 25 mg/ml, pH 8.0): 49.3%
Conversion rate ([9]; 7-ACA 1 mg/ml, TA-ester 114, Sephalose 4B): 78.5%
Conversion rate ([9]; 7-ACA 1 mg/ml, TA-ester 120, Sephalose 4B): 83.7%
Conversion rate ([9]; 7-ACA 2 mg/ml, TA-ester 120, Sephalose 4B): 71.0%
Conversion rate ([9]; 7-ACA 3 mg/ml, TA-ester 120, Sephalose 4B): 56.3%
produced cephalothin [6]: 26 µg/mL
7-ACA→CET Conversion rate (%) ([7]; carrier Agar gel): 85.0%
7-ACA→CET Conversion rate (%) ([7]; carrier Sepharose 4B): 87.6%

O=C(Cc1ccccc1)OCCOCCOCCOCCO [drawing 18]
product detected and determined, A. fragerum M-2183-1 [1]: 16.1
product detected and determined, A. globiformis M-345-2 [2]: 10.1
product detected and determined, B. Circulans M-1123-5 [3]: 36.2

O=C(Cc1ccccc1)OCCOCCOCCOCCO [drawing 20]
product detected and determined, A. fragerum M-2183-1 [1]: 20.3
product detected and determined, A. globiformis M-345-2 [2]: 18.0
product detected and determined, B. Circulans M-1123-5 [3]: Decomposition with penicillinase
